For the compound `CN(c1ccc2c(c1)COB2O)S(=O)(=O)c1ccccc1` [C30, N-(1-hydroxy-1,3-dihydrobenzo[c][1,2]oxaborol-5-yl)-N-methylbenzenesulfonamide], the melting point was in the range of 85 to 95 °C.

In turn, `CCCCC(=O)c1cccc(COc2ccc3c(c2)COB3O)c1` [C45, 1-(3-((1-hydroxy-1,3-dihydrobenzo[c][1,2]oxaborol-5-yloxy)methyl)phenyl)pentan-1-one] yielded a melting point of 96 to 98 °C.

Take `[O-][S+](c1ccc(Cl)cc1)c1ccc2c(c1)B(O)OC2` (stereo not shown) [C89, 6-(4-chlorophenylsulfinyl)benzo[c][1,2]oxaborol-1(3H)-ol]: the melting point was 154 to 161 °C.

Turning to `OB1OCc2ccc(-n3ccc4ccccc43)cc21` [C55, 6-(1H-indol-1-yl)benzo[c][1,2]oxaborol-1(3H)-ol], the melting point was 135 to 140 °C.

For the compound `O=C(COc1ccc2c(c1)COB2O)N1CCN(c2ncccn2)CC1` [C47, 2-(1-hydroxy-1,3-dihydrobenzo[c][1,2]oxaborol-5-yloxy)-1-(4-(pyrimidin-2-yl)piperazin-1-yl)ethanone], the melting point lay in the range of 190 to 195 °C.

On to `OB1OCc2ccc(N3CCN(c4ccccn4)CC3)cc21` [C48, 6-(4-(pyridin-2-yl)piperazin-1-yl)benzo[c][1,2]oxaborol-1(3H)-ol], for which the melting point was in the range of 135 to 138 °C.

`COc1ccc2c(c1)COB2O` [C7, 5-methoxybenzo[c][1,2]oxaborol-1(3H)-ol]: the melting point was in the range of 102 to 104 °C.

For `O=C(O)COc1ccc2c(c1)COB2O` [C42, 2-(1-hydroxy-1,3-dihydrobenzo[c][1,2]oxaborol-5-yloxy)acetic acid], the melting point lay in the range of 163 to 166 °C.

In turn, `OB1OCc2cc3c(cc21)OCO3` [C69, 5,6-methylenedioxybenzo[c][1,2]oxaborol-1(3H)-ol] gave a melting point of 185 to 189 °C.

Take `[O-][S+](c1ccc(C(F)(F)F)cc1)c1ccc2c(c1)B(O)OC2` (stereo not shown) [C93, 6-(4-(trifluoromethyl)phenylsulfinyl)benzo[c][1,2]oxaborol-1(3H)-ol]: the melting point was in the range of 79 to 88 °C.

The compound `CCOC(=O)COc1ccc2c(c1)COB2O` [C41, Ethyl 2-(1-hydroxy-1,3-dihydrobenzo[c][1,2]oxaborol-5-yloxy)acetate] showed a melting point of 134 to 137 °C.

With `OCc1cccc2c1B(O)OC2` [C64, 7-(hydroxymethyl)benzo[c][1,2]oxaborol-1(3H)-ol], the melting point was 241 to 250 °C.

Take `OB1OCc2ccc(N(Cc3ccccc3)Cc3ccccc3)cc21` [C78, 6-(dibenzylamino)benzo[c][1,2]oxaborol-1(3H)-ol]: the melting point was 115 to 123 °C.

Take `OB1OCc2ccc(Oc3ccc(C(F)(F)F)cc3)cc21` [C87, 6-(4-(trifluoromethyl)phenoxy)benzo[c][1,2]oxaborol-1(3H)-ol]: the melting point lay within 98 to 105 °C.

`OB1OCc2ccc(NCc3ccccc3)cc21` [C77, 6-(benzylamino)benzo[c][1,2]oxaborol-1(3H)-ol] registered a melting point of 126 to 133 °C.

The compound `OB1OCc2ccc(F)cc21` [C13, 6-fluorobenzo[c][1,2]oxaborol-1(3H)-ol] came in with a melting point of 110 to 117.5 °C.

As for `OB1OCc2ccc(Oc3ccc(OC(F)(F)F)cc3)cc21` [C29, 6-(4-(trifluoromethoxy)phenoxy)benzo[c][1,2]oxaborol-1(3H)-ol], the melting point is 97 to 101 °C.

As to `CN(C)c1ccc2c(c1)B(O)OC2` [C51, 6-(dimethylamino)benzo[c][1,2]oxaborol-(3H)-ol], the melting point fell in the range of 120 to 123 °C.

Compound `N#Cc1cccc(Oc2ccc3c(c2)B(O)OC3)c1` [C19, 3-(1-hydroxy-1,3-dihydrobenzo[c][1,2]oxaborol-6-yloxy)benzonitrile] had a melting point of 146 to 149 °C.

`COc1ccc(Oc2ccc3c(c2)B(O)OC3)cc1` [C31, 6-(4-methoxyphenoxy)benzo[c][1,2]oxaborol-1(3H)-ol] came in with a melting point of 126 to 129 °C.

Compound `OCc1cc2c(cc1Br)COB2O` [C59, 5-bromo-6-(hydroxymethyl)benzo[c][1,2]oxaborol-1(3H)-ol] returned a melting point above 257 °C.

With `Nc1cc2c(cc1F)COB2O` [C70, 6-amino-5-fluorobenzo[c][1,2]oxaborol-1(3H)-ol], the melting point lay in the range of 142 to 145 °C.

Regarding `O=[N+]([O-])c1cc2c(cc1F)COB2O` [C58, 5-fluoro-6-nitrobenzo[c][1,2]oxaborol-1(3H)-ol], the melting point lay within 162 to 167 °C.

In the case of `OB1OCc2ccc(-n3cc(Sc4ccccc4)c4ccccc43)cc21` [C66, 6-(3-(phenylthio)-1H-indol-1-yl)benzo[c][1,2]oxaborol-1(3H)-ol], the melting point lay in the range of 159 to 163 °C.

The compound `COc1ccc2c(c1)c(Sc1ccccc1)cn2-c1ccc2c(c1)B(O)OC2` [C72, 6-(5-methoxy-3-(phenylthio)-1H-indol-1-yl)benzo[c][1,2]oxaborol-1(3H)-ol] showed a melting point of 135 to 141 °C.

Turning to `O=S(=O)(Nc1ccc2c(c1)B(O)OC2)c1ccccc1` [C62, N-(1-hydroxy-1,3-dihydrobenzo[c][1,2]oxaborol-6-yl)benzenesulfonamide], the melting point fell in the range of 175 to 184 °C.

`O=S(=O)(c1ccc(Cl)cc1)c1ccc2c(c1)B(O)OC2` [C90, 6-(4-chlorophenylsulfonyl)benzo[c][1,2]oxaborol-1(3H)-ol]: the melting point was in the range of 157 to 163 °C.

In the case of `N#Cc1cccc(COc2ccc3c(c2)COB3O)c1` [C96, 3-((1-hydroxy-1,3-dihydrobenzo[c][1,2]oxaborol-5-yloxy)methyl)benzonitrile], the melting point is 147 to 150 °C.

For the compound `Cc1ccc(Sc2ccc3c(c2)B(O)OC3)cc1` [C95, 6-(p-tolylthio)benzo[c][1,2]oxaborol-1(3H)-ol], the melting point was 139 to 144 °C.

`OB1OCc2ccc(Oc3ccc(Cl)cc3)cc21` [C20, 6-(4-chlorophenoxy)benzo[c][1,2]oxaborol-1(3H)-ol] came in with a melting point of 119 to 130 °C.

`OB1OCc2ccc(Sc3ccccc3)cc21` [C28, 6-(phenylthio)benzo[c][1,2]oxaborol-1(3H)-ol] had a melting point of 121 to 124 °C.

For the compound `OB1OCc2ccc3ccccc3c21` [C11, naphtho[1,2-c][1,2]oxaborol-1(3H)-ol], the melting point was in the range of 139 to 143 °C.

Regarding `OB1OCc2ccc(Sc3ccc(C(F)(F)F)cc3)cc21` [C92, 6-(4-(trifluoromethyl)phenylthio)benzo[c][1,2]oxaborol-1(3H)-ol], the melting point fell in the range of 111 to 113 °C.

In turn, `Cc1cccc2c1B(O)OC2` [C65, 7-methylbenzo[c][1,2]oxaborol-1(3H)-ol] yielded a melting point of 107 to 111 °C.

`CC(=O)Nc1ccc2c(c1)B(O)OC2` [C63, N-(1-hydroxy-1,3-dihydrobenzo[c][1,2]oxaborol-6-yl)acetamide] returned a melting point of 176 to 185 °C.

With `COc1ccc(S(=O)(=O)c2ccc3c(c2)B(O)OC3)cc1` [C33, 6-(4-methoxyphenylsulfonyl)benzo[c][1,2]oxaborol-1(3H)-ol], the melting point lay within 180 to 192 °C.

Consider `N#Cc1ccc(Oc2cccc3c2B(O)OC3)cc1` [C74, 4-(1-hydroxy-1,3-dihydrobenzo[c][1,2]oxaborol-7-yloxy)benzonitrile], for which the melting point was 148 to 153 °C.

`OB1OCc2ccc(Sc3ccc(F)cc3)cc21` [C44, 6-(4-fluorophenylthio)benzo[c][1,2]oxaborol-1(3H)-ol] came in with a melting point of 135 to 138 °C.

`CSc1ccc(Sc2ccc3c(c2)B(O)OC3)cc1` [C94, 6-(4-(methylthio)phenylthio)benzo[c][1,2]oxaborol-1(3H)-ol]: the melting point lay in the range of 117 to 120 °C.

Compound `COc1ccc2c(ccn2-c2ccc3c(c2)B(O)OC3)c1` [C68, 6-(5-methoxy-1H-indol-1-yl)benzo[c][1,2]oxaborol-1(3H)-ol] yielded a melting point of 120 to 124 °C.

As to `OB1OCc2cccc(F)c21` [C86, 7-fluorobenzo[c][1,2]oxaborol-1(3H)-ol], the melting point was in the range of 120 to 124 °C.

`O=C(COc1ccc2c(c1)COB2O)N1CCCCC1` [C46, 2-(1-hydroxy-1,3-dihydrobenzo[c][1,2]oxaborol-5-yloxy)-1-(piperidin-1-yl)ethanone] yielded a melting point of 158 to 163 °C.

`O=C(Nc1ccc2c(c1)B(O)OC2)c1ccccc1` [C52, N-(1-hydroxy-1,3-dihydrobenzo[c][1,2]oxaborol-6-yl)benzamide]: the melting point was in the range of 186 to 193 °C.

For the compound `OB1OCc2ccc(Oc3ccccc3)cc21` [C21, 6-phenoxybenzo[c][1,2]oxaborol-1(3H)-ol], the melting point lay within 95 to 99 °C.

`OB1OCc2ccc(N3CCOCC3)cc21` [C56, 6-morpholinobenzo[c][1,2]oxaborol-1(3H)-ol] displayed a melting point of 128 to 132 °C.

`OB1OCc2ccc(Sc3ccc(Cl)cc3)cc21` [C88, 6-(4-chlorophenylthio)benzo[c][1,2]oxaborol-1(3H)-ol] registered a melting point of 157 to 161 °C.

On to `OB1OCc2ccc(-n3ccc4cc(Cl)ccc43)cc21` [C75, 6-(5-chloro-1H-indol-1-yl)benzo[c][1,2]oxaborol-1(3H)-ol], for which the melting point was 149 to 154 °C.

In turn, `OB1OCc2ccc(Sc3cccs3)cc21` [C43, 6-(thiophen-2-ylthio)benzo[c][1,2]oxaborol-1(3H)-ol] displayed a melting point of 99 to 104 °C.

In the case of `COc1ccc2c(c1)c(SCCC#N)cn2-c1ccc2c(c1)B(O)OC2` [C73, 3-(1-(1-hydroxy-1,3-dihydrobenzo[c][1,2]oxaborol-6-yl)-5-methoxy-1H-indol-3-ylthio)propanenitrile], the melting point lay within 149 to 154 °C.

In turn, `N#CCCSc1cn(-c2ccc3c(c2)B(O)OC3)c2ccccc12` [C67, 3-(1-(1-hydroxy-1,3-dihydrobenzo[c][1,2]oxaborol-6-yl)-1H-indol-3-ylthio)propanenitrile] yielded a melting point of 135 to 141 °C.

Regarding `OB1OCc2cc3c(cc21)COB3O` [C60, 3,7-dihydro-1,5-dihydroxy-1H,3H-Benzo[2-c: 4,5-c′]bis[1,2]oxaborole], the melting point is above 250 °C.

For `O=S(=O)(c1ccccc1)N(c1ccc2c(c1)COB2O)S(=O)(=O)c1ccccc1` [C91, N-(1-hydroxy-1,3-dihydrobenzo[c][1,2]oxaborol-5-yl)-N-(phenylsulfonyl)benzenesulfonamide], the melting point was in the range of 142 to 152 °C.

As a reminder, the melting point is the temperature of the solid-liquid transition.

Values taken from patent US9566290B2, “Boron-containing small molecules” (Anacor Pharmaceuticals, Inc., priority 2005, dated 2017).
